PMC9694048 (Pharmaceutics, 2022)
Values after ≈ are worked out from the molar mass of the structure shown. Structures can show the parent of a compound that is named as a salt. Where two headings read alike, the source gives them in different places. Where a SMILES comes first, the peptide text is derived from it. [ ]: non-standard residue; d: D form.

Assays:
[1] = tested on: WERI-Rb1 cells; assay: MTS cell viability assay; format: cell-based
Procedure: (§1) WERI-Rb1 and ARPE-19 cells were seeded at a concentration of 2 × 10^3 cells/well in a 96-well plate and cultured at 37 °C in a humidified 5% CO2 incubator. After seeding the cells, they were treated with various concentrations of CAPs and further incubated for 48 h at 37 °C. Cell viability was assessed after 48 h using the Cell-Titer 96® Aqueous One Solution Cell Proliferation Assay (cat#G3582, Promega, WI, USA) according to the manufacturer’s protocol and described earlier. Briefly, 10 µL of MTS reagent was added to each well and the cells were incubated at 37 °C for 2 h before the experiment end time points. Percentage cell viability was calculated from the absorbance measured at 490 nm using a TECAN microplate reader.

[2] = tested on: WERI-Rb1 tumor spheroids; assay: Tumor spheroid area by high content imaging; format: cell-based; conditions: 7-day-old WERI-Rb1 spheroids, IC50 dose, 48 h, n = 9 per condition
Procedure: Spheroids were developed using the hanging drop protocol on low attachment U-bottom 96-well plate. The single cell suspension of 5 × 10^2 WERI-Rb1 cells in 100 µL medium was loaded in each well of a 96-well plate. The cells were cultured at 37 °C in a 90% humidified incubator with 5% CO2 for 7 days for the generation of tight and regular tumor spheroids. Seven-day-old spheroids (n = 9 per condition) were treated with 100 μL of freshly prepared medium containing an IC50 dose of topotecan (Figure S1), HC3, or HC5. The cultures were then incubated for 48 h prior to high content analysis (HCA) and immunofluorescence (IF) assays.
WERI-Rb1 cells were stained with orange plasma membrane stain as per the manufacturer’s protocol (Cell Mask Orange Plasma membrane stain; cat#C10045, Invitrogen, Waltham, MA, USA) prior to the development of spheroids. The stained WERI-Rb1 cells were used for spheroid formation using the hanging drop protocol on a low attachment U-bottom 96-well plate. […] The images were acquired using the automated high-content imaging system, IN Cell Analyzer 6000 (GE Healthcare, Singapore), equipped with a laser-based confocal platform having a 2× objective. The automatically captured single well imaging of spheroids and a Z stack of 11 images were separated by 50 µm total 500 µm depth for spheroids, using maximum intensity projection (MIP) acquisition and single-channel filter at 567 nm. To reduce data storage and image analysis time, we analyzed 2D projection images of tumor spheroids for multiple treatment conditions. Spheroid area and shape were automatically quantified by HCA using the IN-Cell 6000 software (GE Healthcare, Singapore). The mean area (µm^2) of each spheroid was calculated to elucidate the drug/peptide response.

[3] = tested on: WERI-Rb1 cells; assay: Western blot of DNA damage markers; format: cell-based; conditions: IC50 dose; for γH2A.X phosphorylation at Ser139 (immunoblot): 48 h, Western blot (Figure 4a); for phosphorylation of ATM and CHK2 (immunoblot): 48-h treatment, Western blot (Figure 4b)
Procedure: WERI-Rb1 cells were seeded in 6-well cell culture plates (1 × 10^6 cells/well), incubated at 37 °C in a humidified 5% CO2 incubator, and were treated with IC50 doses of topotecan, HC3. or HC5. After 48 h, cells were lysed in RIPA buffer (20 mM Tris pH 8.0, 0.1% SDS, 150 mM NaCl, 0.08% sodium deoxycholate, 1% NP40 supplemented with one tablet of protease inhibitor and phosphatase inhibitor (Roche). 20 µg of total protein was loaded per lane and separated by SDS-PAGE. The separated proteins on the gel were transferred to PVDF membrane and were probed for antibodies against γH2A.X (1:1000, cat#2595, Cell Signaling Technology, Danvers, MA, USA), p-γH2A.X (Ser139) (1:1000, cat#2577, Cell Signaling Technology, Danvers, MA, USA), p-BCL2(Ser70) (1:1000, cat#2827, Cell Signaling Technology, Danvers, MA, USA), BCL2 (1:1000, cat#2872, Cell Signaling Technology, Danvers, MA, USA), Bax (1:1000, cat#2772, Cell Signaling Technology, Danvers, MA, USA), p-ATM(Ser1981) (1:1000, cat#5883, Cell Signaling Technology, Danvers, MA, USA), ATM (1:1000, cat#2873, Cell Signaling Technology, Danvers, MA, USA), p-Chk2(Thr68) (1:1000, cat#2661, Cell Signaling Technology, Danvers, MA, USA), Chk2 ([…], cat#2662, Cell Signaling Technology, Danvers, MA, USA), p-p53(Ser15) (1:1000, cat#9284, Cell Signaling Technology, Danvers, MA, USA), p-p53(Ser46) (1:1000, cat#2521, Cell Signaling Technology, Danvers, MA, USA), p53 (1:1000, cat#2524, Cell Signaling Technology, Danvers, MA, USA), Cleaved caspase 9 (1:1000, cat#9505, Cell Signaling Technology, Danvers, MA, USA), Cleaved caspase 3 (1:1000, cat#9661, Cell Signaling Technology, Danvers, MA, USA), Cleaved PARP (1:1000, cat#5625, Cell Signaling Technology, Danvers, MA, USA), and GAPDH (1:2000, cat#ab9485, Abcam, Cambridge, UK). Proteins of interest were detected with HRP-conjugated sheep anti-mouse (1:5000, cat#7076, Cell Signaling Technology, Danvers, MA, USA) or anti-rabbit IgG antibody (1:5000, cat#7074, Cell Signaling Technology, Danvers, MA, USA) and visualized with the Clarity ECL Western blotting substrate (Bio-Rad, Hercules, CA, USA) according to the provided protocol.

[4] = tested on: ARPE-19 cells; assay: Western blot of apoptotic markers in cytoplasmic and mitochondrial fractions; format: cell-based, Human; conditions: ARPE-19, 48-h exposure, cytoplasmic and mitochondrial fractions (Figure 5c)
[5] = tested on: WERI-Rb1 cells; assay: Trypan blue viability assay; format: cell-based; conditions: WERI-Rb1, 48 h treatment; for cell death at a high dose: high dose (dose not specified); for cell death at a low dose: low dose (dose not specified)
Procedure: WERI-Rb1 cells (1 × 10^5) were treated with increasing concentrations (7.7 µM, 36.25 µM, 72.5 µM, 145 µM, or 290 µM) of a panel of six HC peptides (HC1, HC2, HC3, HC4, HC5, and HC6). Nocodazole (10 µM) treatment was used as a positive control for the study, with untreated cells as the negative control. All treatments were performed at 37 °C in a 90% humidified incubator with 5% CO2 for 48 h. After 48 h post-treatment, cells were stained with 0.4% trypan blue (cat#15250061, Invitrogen, Waltham, MA, USA) and the number of live and dead cells for each time point was estimated using the hemocytometer cell counting protocol. The percentage of cell viability was calculated by dividing the live cell count by the total cell count.

[6] = tested on: ARPE-19 cells; assay: MTS cell viability assay; format: cell-based, Human; conditions: ARPE-19, MTS, 48 h (Figure 2c)
Procedure: as §1

[7] = tested on: S. aureus/MRSA; assay: MIC by broth microdilution; format: cell-based; conditions: 35 °C, 24 h, duplicates
Procedure: The minimum inhibitory concentrations (MIC) of cationic peptides were determined using the broth microdilution method in a 96-well microtiter plate (Cellstar, Greiner Bio-One, Austria). The inoculum was prepared by suspending overnight grown isolated colonies selected from a Tryptic Soy Agar (TSA) plate in water for injection. The concentration of the inoculum suspension was adjusted to match that of the 0.5 McFarland’s standard (10^8 CFU/mL) and further diluted 150-fold by adding 50 μL of suspension into 7.5 mL of Mueller−Hinton broth to obtain an inoculum of 10^5 to 10^6 CFU/mL. Lyophilized peptide obtained from the manufacturer was dissolved in water and adjusted to a final concentration of 0.5 to 256 μg/mL in twofold serial dilutions. A total of 100 μL of the solution was then mixed with an equal volume of bacterial inoculum prepared before in 96-well plates. The plates were then incubated at 35 °C for 24 h, and the optical density at 600 nm (OD600) was determined using a TECAN microplate reader.

[8] = WERI-Rb1 cells, 48 h, dose used for spheroid treatment

SMILES | effect on Rb spheroid size [2] | γH2A.X phosphorylation at Ser139 (immunoblot) [3] | apoptotic events in ARPE-19 cells (Bax, cytochrome c) [4] | cell death at a high dose [5] [%] | cell death at a low dose [5] [%] | IC50 [1, 8] [µL/mL] | cytotoxic effect on non-malignant ARPE-19 cells [6] | phosphorylation of ATM and CHK2 (immunoblot) [3] | other results
CC[C@@]1(O)C(=O)OCc2c1cc1n(c2=O)Cc2cc3c(CN(C)C)c(O)ccc3nc2-1 [topotecan, Topotecan hydrochloride hydrate] | disrupted Rb spheroids | induction of γH2A.X phosphorylation at Ser139 | induced Bax expression in the mitochondrial fraction of ARPE-19 | – | – | – | – | – | IC50 ([1]; WERI-Rb1, MTS, 48 h exposure, 5 nM to 50 nM (Figure S3), read-out: IC50): 10 nM
N=C(N)NCCC[C@H](NC(=O)[C@@H](CCCCN)NC(=O)[C@H](CCCNC(=N)N)NC(=O)[C@@H](CCCCN)NC(=O)[C@H](CCCNC(=N)N)NC(=O)[C@@H](CCCCN)NC(=O)[C@H](CCCNC(=N)N)NC(=O)[C@@H](CCCCN)NC(=O)[C@H](CCCNC(=N)N)NC(=O)[C@@H](CCCCN)NC(=O)[C@H](CCCNC(=N)N)NC(=O)[C@H](N)CCCCN)C(=O)O [HC5] (H-[dK]R[dK]R[dK]R[dK]R[dK]R[dK]R-OH; N-terminus and C-terminus assumed) | effectively shrunk and decreased the Rb spheroid size | did not show any activation of γH2A.X(Ser139) | did not trigger any apoptotic events | 60 | 40 | 65.2 | did not display any cytotoxic effect | induced phosphorylation of ATM (ataxia-telangiectasia mutated) at Ser1981 and CHK2 at Thr68 | –
CCCCCCCCCC(=O)N[C@@H](Cc1c[nH]c2ccccc12)C(=O)N[C@H](CC(N)=O)C(=O)N[C@@H](CC(=O)O)C(=O)N[C@@H]1C(=O)NCC(=O)N[C@@H](CCCN)C(=O)N[C@@H](CC(=O)O)C(=O)N[C@H](C)C(=O)N[C@@H](CC(=O)O)C(=O)NCC(=O)N[C@H](CO)C(=O)N[C@@H]([C@H](C)CC(=O)O)C(=O)N[C@@H](CC(=O)c2ccccc2N)C(=O)O[C@@H]1C [Daptomycin] | – | – | – | – | – | – | – | – | Minimum inhibitory concentration ([7]; strain MRSA 9808R, Mueller-Hinton broth): 0.31 µM (≈ 0.502 µg/mL); Minimum inhibitory concentration ([7]; strain MRSA 21595, Mueller-Hinton broth): 0.31 µM (≈ 0.502 µg/mL); Minimum inhibitory concentration ([7]; strain MRSA 42412, Mueller-Hinton broth): 0.31 µM (≈ 0.502 µg/mL); Minimum inhibitory concentration ([7]; strain MRSA 43300, Mueller-Hinton broth): 0.31 µM (≈ 0.502 µg/mL); Minimum inhibitory concentration ([7]; strain MRSA 68004, Mueller-Hinton broth): 0.31 µM (≈ 0.502 µg/mL); Minimum inhibitory concentration ([7]; strain MRSA 700699, Mueller-Hinton broth): 0.62 µM (≈ 1 µg/mL); Minimum inhibitory concentration ([7]; strain MRSA +B32:L426506, Mueller-Hinton broth): 0.31 µM (≈ 0.502 µg/mL); Minimum inhibitory concentration ([7]; strain MRSA BAA38, Mueller-Hinton broth): 4.94 µM (≈ 8.01 µg/mL); Minimum inhibitory concentration ([7]; strain MRSA DB57964/04, Mueller-Hinton broth): 0.31 µM (≈ 0.502 µg/mL); Minimum inhibitory concentration ([7]; strain S. aureus 4299, Mueller-Hinton broth): 2.47 µM (≈ 4 µg/mL); Minimum inhibitory concentration ([7]; strain S. aureus 4400R, Mueller-Hinton broth): 0.31 µM (≈ 0.502 µg/mL); Minimum inhibitory concentration ([7]; strain S. aureus 4583R, Mueller-Hinton broth): 0.31 µM (≈ 0.502 µg/mL); Minimum inhibitory concentration ([7]; strain S. aureus 6538, Mueller-Hinton broth): 0.15 µM (≈ 0.243 µg/mL); Minimum inhibitory concentration ([7]; strain S. aureus 29213, Mueller-Hinton broth): 0.15 µM (≈ 0.243 µg/mL); Minimum inhibitory concentration ([7]; strain S. aureus 29737, Mueller-Hinton broth): 0.31 µM (≈ 0.502 µg/mL)
N=C(N)NCCC[C@@H](NC(=O)[C@H](CCCCN)NC(=O)[C@@H](CCCNC(=N)N)NC(=O)[C@H](CCCCN)NC(=O)[C@@H](CCCNC(=N)N)NC(=O)[C@H](CCCCN)NC(=O)[C@@H](CCCNC(=N)N)NC(=O)[C@H](CCCCN)NC(=O)[C@@H](CCCNC(=N)N)NC(=O)[C@H](CCCCN)NC(=O)[C@@H](CCCNC(=N)N)NC(=O)[C@@H](N)CCCCN)C(=O)O [HC3] (H-K[dR]K[dR]K[dR]K[dR]K[dR]K[dR]-OH; N-terminus and C-terminus assumed) | effectively shrunk and decreased the Rb spheroid size | did not show any activation of γH2A.X(Ser139) | did not trigger any apoptotic events | 60 | 40 | 77.2 | did not display any cytotoxic effect | induced phosphorylation of ATM (ataxia-telangiectasia mutated) at Ser1981 and CHK2 at Thr68 | –
COc1cccc2c1C(=O)c1c(O)c3c(c(O)c1C2=O)C[C@@](O)(C(=O)CO)C[C@@H]3O[C@H]1C[C@H](N)[C@H](O)[C@H](C)O1 [doxorubicin] | – | – | – | – | – | – | – | – | IC50 ([1]; WERI-Rb1, MTS, 48 h exposure, (Figure S4), read-out: IC50): 2500 nM
